“And” between values parts separate entries of the source, which are not always exact repeats. Identical values can stand only once.

For orientation: EC50 means the concentration that produces a half-maximal response. Usually Kd stands for the constant that tells how readily two partners part at equilibrium.

On the set-up of assay [1]: method as in PMID 39139642. The following applies: cited from earlier work.
In assay [2] the target is T1, rP2X7R (Rattus norvegicus, UniProt Q64663).
T1 sequence (Q64663 1-595): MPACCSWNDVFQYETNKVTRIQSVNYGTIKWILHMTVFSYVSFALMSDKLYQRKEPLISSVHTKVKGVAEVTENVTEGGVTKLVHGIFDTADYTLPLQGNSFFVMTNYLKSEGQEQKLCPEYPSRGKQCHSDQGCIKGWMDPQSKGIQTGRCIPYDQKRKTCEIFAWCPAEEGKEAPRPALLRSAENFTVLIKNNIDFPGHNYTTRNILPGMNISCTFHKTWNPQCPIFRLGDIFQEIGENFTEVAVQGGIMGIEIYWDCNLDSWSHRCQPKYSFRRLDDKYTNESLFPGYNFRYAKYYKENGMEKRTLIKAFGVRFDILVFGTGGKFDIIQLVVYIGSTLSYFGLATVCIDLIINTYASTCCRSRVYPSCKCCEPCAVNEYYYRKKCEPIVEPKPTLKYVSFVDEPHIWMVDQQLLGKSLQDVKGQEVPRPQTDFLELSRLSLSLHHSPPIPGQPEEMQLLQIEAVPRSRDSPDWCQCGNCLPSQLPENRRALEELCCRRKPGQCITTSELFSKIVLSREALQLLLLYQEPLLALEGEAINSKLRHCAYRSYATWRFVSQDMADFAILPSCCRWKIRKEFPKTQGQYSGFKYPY
Put plainly: TEVC dose response of ATP at rP2X7R in Xenopus oocytes. It counts as cell-based. Set-up: expressed in transfected cells; host or cells: Xenopus laevis oocytes injected with mRNA made from pcDNA 3.1x. As to the method: (§1) Defolliculated Xenopus laevis oocytes were purchased from Ecocyte Bioscience and kept in Modified Barth’s Solution (88 mM NaCl, 1 mM KCl, 0.82 mM MgSO4, 0.33 mM Ca(NO3)2·4H2O, 0.41 mM CaCl2·2H2O, 2.4 mM NaHCO3, 5 mM HEPES) supplemented with amikacin 250 mg/L and gentamycin 150 mg/L. Oocytes were then injected with 50 nL of either full-length wild-type hP2X7R (40 ng/μL), mP2X7R (20 ng/μL), or rP2X7R (20 ng/μL) mRNA made from linearized pcDNA 3.1x according to the protocol provided in the mMessage mMachine kit (Invitrogen). Injected oocytes were allowed to express for ~20 h before recording was performed.
(§2) Data acquisition was performed using an Oocyte Clamp OC-725C amplifier and pClamp 8.2 software. Buffers were applied using a gravity-fed RSC-200 Rapid Solution Changer, flowing at ~5 mL/min. All experiments use Sutter filamented glass 10 cm in length with an inner diameter of 0.69 mm and an outer diameter of 1.2 mm to impale oocytes and clamp the holding voltage at −60 mV. Experiments were recorded in buffer containing 100 mM NaCl, 2.5 mM KCl, 0.1 mM EDTA, 0.1 mM flufenamic acid, and 5 mM HEPES at pH 7.4.
(§3) This value is then averaged amongst each singular condition and reported as the mean ± SD.

A further assay has as its target T2, mP2X7R (Mus musculus, UniProt Q9Z1M0).
T2 construct: expressed in transfected cells
T2 sequence (Q9Z1M0 1-595): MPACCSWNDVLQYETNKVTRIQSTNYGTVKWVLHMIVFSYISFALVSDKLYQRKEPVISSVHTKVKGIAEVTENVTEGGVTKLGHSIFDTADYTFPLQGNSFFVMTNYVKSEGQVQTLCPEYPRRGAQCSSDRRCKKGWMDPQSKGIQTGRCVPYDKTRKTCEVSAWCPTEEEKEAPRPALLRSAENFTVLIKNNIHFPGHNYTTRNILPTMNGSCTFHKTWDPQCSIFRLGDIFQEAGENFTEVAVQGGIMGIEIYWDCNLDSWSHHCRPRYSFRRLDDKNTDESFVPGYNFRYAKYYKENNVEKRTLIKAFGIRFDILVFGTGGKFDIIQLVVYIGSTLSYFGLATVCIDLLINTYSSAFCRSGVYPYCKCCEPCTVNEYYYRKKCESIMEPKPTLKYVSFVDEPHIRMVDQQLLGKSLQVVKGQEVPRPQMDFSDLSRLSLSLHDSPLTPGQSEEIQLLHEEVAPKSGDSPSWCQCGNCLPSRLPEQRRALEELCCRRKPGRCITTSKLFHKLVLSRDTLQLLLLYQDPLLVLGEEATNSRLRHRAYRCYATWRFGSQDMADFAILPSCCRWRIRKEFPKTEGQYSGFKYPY
Description: TEVC dose response of ATP at mP2X7R in Xenopus oocytes. It counts as cell-based. The method, then: as §1, §2, §3

For assay [3], the target named is rP2X7R. Set-up: method as in PMID 39107314. The conditions noted are these: BLI; read-out: equilibrium dissociation constant (KD), rP2X7R; cited from earlier work. For orientation: In BLI a coated tip is dipped into the sample, and binding shifts an interference pattern.
For assay [4], the target named is T3, hP2X7R (Homo sapiens, UniProt Q99572).
T3 sequence (Q99572 1-595): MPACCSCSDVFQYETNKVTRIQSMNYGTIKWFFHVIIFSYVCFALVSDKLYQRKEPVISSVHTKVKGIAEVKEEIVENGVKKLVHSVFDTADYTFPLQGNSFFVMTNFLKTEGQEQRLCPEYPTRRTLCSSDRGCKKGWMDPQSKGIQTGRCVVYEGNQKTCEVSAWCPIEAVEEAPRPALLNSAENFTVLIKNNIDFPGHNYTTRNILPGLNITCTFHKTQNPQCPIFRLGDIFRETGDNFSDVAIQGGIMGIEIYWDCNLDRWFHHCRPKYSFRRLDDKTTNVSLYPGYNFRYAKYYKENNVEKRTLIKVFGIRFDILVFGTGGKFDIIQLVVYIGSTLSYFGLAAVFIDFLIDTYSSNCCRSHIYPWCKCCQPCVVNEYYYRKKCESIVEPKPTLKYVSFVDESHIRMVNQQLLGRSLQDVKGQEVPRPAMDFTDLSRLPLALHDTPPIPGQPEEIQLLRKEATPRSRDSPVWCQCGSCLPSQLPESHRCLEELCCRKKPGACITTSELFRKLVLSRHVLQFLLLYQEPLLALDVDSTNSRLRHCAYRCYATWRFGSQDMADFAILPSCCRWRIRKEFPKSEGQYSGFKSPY
Put plainly: Bio-layer interferometry (BLI), ATP binding to biotinylated hP2X7R. As to the method:
Briefly, BLI experiments were performed at 30 °C in 384-well tilted-bottom plates (Sartorius) with orbital shaking at 1000 r.p.m. on a ForteBio Octet RED384 instrument (ForteBio Data Acquisition software 11.0) using pre-equilibrated (0.22 μm filtered PBS at pH 7.4 and 0.5 mM DDM from Anatrace) SA biosensor tips (Sartorious) loaded with 50 μg/mL of biotinylated hP2X7R ligand or biocytin (Sigma-Aldrich) control for 1800 s[34],[35]. The loaded SA sensors were blocked with 100 μg/mL of biocytin for 150 s and then washed with running buffer for 60 s. […] After data collection, rate constants for association and dissociation were determined using ForteBio Data Analysis HT 11.0 evaluation software. To maximize signal between the large ligand and small analyte, the raw data were double reference subtracted[34],[35]. For each interaction pair, the association rate constant (ka) and the dissociation rate constant (kd) were calculated with an average of three independent assays with at least four different concentrations that were globally fit to a 1:1 Langmuir binding model. The equilibrium dissociation constant (KD) was calculated as the ratio of kd to ka. The KD, ka, and kd values are reported as the average ± the standard deviation of three replicate datasets for each analyte, with each dataset using at least four independent traces. The analyzed data were exported and plotted in GraphPad Prism 9.0.

Assay [5] addresses T3, hP2X7R. Description: TEVC dose response of ATP at hP2X7R in Xenopus oocytes. Set-up: expressed in transfected cells; host or cells: Xenopus laevis oocytes injected with mRNA made from pcDNA 3.1x. The class given is cell-based. As to the method:
as §1, §2, §3

Another assay relates to P2X7R. The conditions noted are these: cited from earlier work.
Setting [6] is: [ATP] 3000 μM, single experiments.

In the case of `O=C(NCC12CC3CC(CC(C3)C1)C2)c1cc(CCCNCCCO)ccc1Cl` [AZD9056], the “efficacy in phase II trials for rheumatoid arthritis” value in assay [1] is recorded as “limited efficacy”.

For `Nc1ncnc2c1ncn2[C@@H]1O[C@H](COP(=O)(O)OP(=O)(O)OP(=O)(O)O)[C@@H](O)[C@H]1O` [ATP], the “Normalized response, rP2X7R” value at rP2X7R [2] ([ATP] 2 μM) was 0; at rP2X7R [2] ([ATP] 37 μM), 0.41 and 0.5375 and 0.6343; at rP2X7R [2] ([ATP] 1000 μM), 0.98 and 0.9571 and 0.9954; on rP2X7R [2] (setting [6]), 1 and 0.9691. Moreover, the concentration giving a half-maximal response (EC50) at rP2X7R [2] (read-out: EC50 for ATP, rP2X7R, TEVC, absence of divalent cations, mean ± SD, triplicate) is 34 ± 8.4 µM; on mP2X7R (read-out: EC50 for ATP, mP2X7R, TEVC, absence of divalent cations, mean ± SD, triplicate) it was 70 ± 17 µM; at hP2X7R [5] (read-out: EC50 for ATP, hP2X7R, TEVC, absence of divalent cations, mean ± SD, triplicate), 89 ± 8.3 µM. Moreover, the “Normalized response, mP2X7R” value on mP2X7R ([ATP] 1.2 μM) was 0.02 and 0.01; on mP2X7R ([ATP] 3.7 μM) it was 0.017 and 0.013 and 0.009; at mP2X7R ([ATP] 37 μM) it was 0.27 and 0.22 and 0.15; at mP2X7R ([ATP] 1000 μM) it was 1 and 0.88; on mP2X7R (setting [6]), 1 and 0.9. Also, the Kd is 0.54 ± 0.23 µM at rP2X7R [3] and 0.65 ± 0.12 µM at hP2X7R [4] (BLI, mean ± SD, triplicate, read-out: equilibrium dissociation constant (KD), hP2X7R). In addition, on hP2X7R [4] (BLI, 1:1 Langmuir model), the “rate constant for association (ka)” value is given as 7.4 ± 1.3 × 10^4 M^−1 s^−1. Further, the “rate constant for dissociation (kd)” value at hP2X7R [4] (BLI, 1:1 Langmuir model) was 4.8 ± 1.2 × 10^−2 s^−1. The “KD higher than at the rP2X7R” value at hP2X7R [4] (hP2X7R vs rP2X7R) is on record as ~ 20%. At hP2X7R [4] (hP2X7R vs rP2X7R), the “ka slower than for ATP binding to the rP2X7R” value is reported as ~ 27%. Also, at hP2X7R [4] (hP2X7R vs rP2X7R), the “kd slower than for ATP binding to the rP2X7R” value is recorded as ~ 6%. The “Normalized response, hP2X7R” value is 0.2 and 0.1456 at hP2X7R [5] ([ATP] 37 μM); 1 and 1.01 and 0.9474 at hP2X7R [5] ([ATP] 1000 μM); 1.044 and 1.035 and 1.029 at hP2X7R [5] (setting [6]).

With `Clc1cccc(-c2nnnn2Cc2cccnc2)c1Cl` [Compound A438079], the “inhibitory activity across human, mouse and rat orthologs” value in the assay on P2X7R is on record as “equal inhibitory activity across all three orthologs”.

The values are drawn from paper PMC12436592 (Nature Communications, 2025).
